Experimental data published in patent publication US8946426B2, “Substituted bicyclic heterocyclic compounds as gamma secretase modulators” (Janssen Pharmaceuticals, Inc., priority 2009, dated 2015).

How the values were obtained:
Aβ42 [1] = test: Method 1: Aβ42 sandwich ELISA in supernatant of SKNBE2 cells carrying APP 695-wild type (Tables 7a, 7b); format: cell-based
How it was run: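 SKNBE2 cells expressing wild-type APP695 were exposed to compound for 18 hours. Secreted Aβ42 was quantified by sandwich ELISA with C-terminal-selective capture, biotinylated 3D6 detection and TMB read-out at 450 nm. IC50 came from 4-parameter fits of % inhibition or % of untreated control; WST-1 monitored toxicity.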

Aβtotal [2] = test: Method 1: Aβtotal sandwich ELISA in supernatant of SKNBE2 cells carrying APP 695-wild type (Tables 7a, 7b); format: cell-based
How it was run: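 SKNBE2 cells expressing wild-type APP695 were exposed to compound for 18 Hours in Ultraculture with 1% glutamine. Aβtotal in the supernatant was read by 6E10-capture/biotinylated 4G8 sandwich ELISA with a fluorogenic peroxidase read-out, and WST-1 checked toxicity. IC50 came from a 4-parameter fit of percent inhibition or percent of control versus concentration.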

Aβtotal [3] = test: In vivo efficacy: Aβtotal lowering in brain after single oral dose (Table 8); conditions: mouse brain soluble fraction, ELISA, compared to untreated animals
Source text: (§1) To determine whether acute administration of an Aβ42 lowering agent would reduce Aβ42 levels in vivo, non-transgenic rodents, e.g. mice or rats were used. Alternatively, two to three month old Tg2576 mice expressing APP695 containing the “Swedish” variant can be used or a transgenic mouse model developed by Dr. Fred Van Leuven (K.U.Leuven, Belgium) and co-workers, with neuron-specific expression of a clinical mutant of the human amyloid precursor protein [V7171] (Moechars et al., 1999 J. Biol. Chem. 274, 6483). Young transgenic mice have high levels of Aβ in the brain but no detectable Aβ deposition. At approximately 6-8 months of age, the transgenic mice start to display spontaneous, progressive accumulation of β-amyloid (Aβ) in the brain, eventually resulting in amyloid plaques within the subiculum, hippocampus and cortex. Animals treated with the Aβ42 lowering agent were examined and compared to those untreated or treated with vehicle and brain levels of soluble Aβ42 and total Aβ would be quantitated by standard techniques, for example, using ELISA. Treatment periods varied from hours to days and were adjusted based on the results of the Aβ42 lowering once a time course of onset of effect could be established.
(§2) A typical protocol for measuring Aβ42 lowering in vivo is shown but it is only one of many variations that could be used to optimize the levels of detectable Aβ. For example, Aβ42 lowering compounds were formulated in 20% of Captisol® (a sulfobutyl ether of β-cyclodextrin) in water or 20% hydroxypropyl β cyclodextrin. The Aβ42 lowering agents were administered as a single oral dose or by any acceptable route of administration to overnight fasted animals. After four hours, the animals were sacrificed and Aβ42 levels were analysed.
(§3) Blood was collected by decapitation and exsanguinations in EDTA-treated collection tubes. Blood was centrifuged at 1900 g for 10 min at 4° C. and the plasma recovered and flash frozen for later analysis. The brain was removed from the cranium and hindbrain. The cerebellum was removed and the left and right hemisphere were separated. The left hemisphere was stored at −18° C. for quantitative analysis of test compound levels. The right hemisphere was rinsed with phosphate-buffered saline (PBS) buffer and immediately frozen on dry ice and stored at −80° C. until homogenization for biochemical assays.
(§4) Mouse brains were resuspended in 10 volumes of 0.4% DEA (diethylamine)/50 mM NaCl pH 10 (for non-transgenic animals) or 0.1% 3-[(3-cholamidopropyl)-dimethyl-ammonio]-1-propanesulfonate (CHAPS) in tris buffered saline (TBS) (for transgenic animals) containing protease inhibitors (Roche-11873580001 or 04693159000 per gram of tissue, e.g. for 0.158 g brain, add 1.58 ml of 0.4% DEA. All samples were sonicated for 30 sec on ice at 20% power output (pulse mode). Homogenates were centrifuged at 221.300×g for 50 min. The resulting high speed supernatants were then transferred to fresh tubes and were optionally further purified before the next step. A portion of the supernatant was neutralized with 10% 0.5 M Tris-HCl and this was used to quantify Aβtotal.
(§5) The obtained supernatants were purified with Water Oasis HLB reverse phase columns (Waters Corp., Milford, Mass.) to remove non-specific immunoreactive material from the brain lysates prior subsequent Aβ detection. Using a vacuum manifold, all solutions were passed through the columns at a rate of approximately 1 ml per minute, so the vacuum pressure was adjusted accordingly throughout the procedure. Columns were preconditioned with 1 ml of 100% MeOH, before equilibration with 1 ml of H2O. Non-neutralized brain lysates were loaded onto the columns. The loaded samples were then washed twice with the first wash performed with 1 ml of 5% MeOH, and the second wash with 1 ml of 30% MeOH. Finally, the Aβ was eluted from the columns and into 100×30 mm glass tubes, with a solution of 90% MeOH with 2% NH4OH. […]

Aβ42 [4] = test: In vivo efficacy: Aβ42 lowering in brain after single oral dose (Table 8); conditions: mouse brain soluble fraction, ELISA, compared to untreated animals
Source text: as §1, §2, §3, §4, §5

Aβtotal [5] = test: Method 2: Aβtotal Alphalisa in supernatant of SKNBE2 cells carrying APP 695-wild type (Table 7c); format: cell-based; conditions: Method 2, Alphalisa, overnight incubation
Description: (§6) Screening was carried out using SKNBE2 cells carrying the APP 695-wild type, grown in Dulbecco's Modified Eagle's Medium/Nutrient mixture F-12 (DMEM/NUT-mix F-12) (HAM) provided by Invitrogen (cat no. 10371-029) containing 5% Serum/Fe supplemented with 1% non-essential amino acids, 1-glutamine 2 mM, Hepes 15 mM, penicillin 50 U/ml (units/ml) en streptomycin 50 μg/ml. Cells were grown to near confluency.
(§7) The screening was performed using a modification of the assay as described in Citron et al (1997) Nature Medicine 3: 67. Briefly, cells were plated in a 384-well plate at 10^4 cells/well in Ultraculture (Lonza, BE12-725F) supplemented with 1% glutamine (Invitrogen, 25030-024), 1% non-essential amino acid (NEAA), penicillin 50 U/ml en streptomycin 50 μg/ml in the presence of test compound at different test concentrations. The cell/compound mixture was incubated overnight at 37° C., 5% CO2. The next day the media were assayed by two sandwich immuno-assays, for Aβ42 and Aβtotal.
(§8) Aβtotal and Aβ42 concentrations were quantified in the cell supernatant using the Aphalisa technology (Perkin Elmer). Alphalisa is a sandwich assay using biotinylated antibody attached to streptavidin coated donorbeads and antibody conjugated to acceptor beads. In the presence of antigen, the beads come into close proximity. The excitation of the donor beads provokes the release of singlet oxygen molecules that trigger a cascade of energy transfer in the acceptor beads, resulting in light emission. To quantify the amount of Aβ42 in the cell supernatant, monoclonal antibody specific to the C-terminus of Aβ42 (JRF/cAβ42/26) was coupled to the receptor beads and biotinylated antibody specific to the N-terminus of Aβ (JRF/AβN/25) was used to react with the donor beads. To quantify the amount of Aβtotal in the cell supernatant, monoclonal antibody specific to the N-terminus of Aβ (JRF/AβN/25) was coupled to the receptor beads and biotinylated antibody specific to the mid region of Aβ (biotinylated 4G8) was used to react with the donor beads.
(§9) To obtain the values reported in Table 7c, the data were calculated as percentage of the maximum amount of amyloid Beta 42 measured in the absence of the test compound. The sigmoidal dose response curves were analyzed using non-linear regression analysis with percentage of the control plotted against the log concentration of the compound. A 4-parameter equation was used to determine the IC50.

Aβ42 [6] = test: Method 2: Aβ42 Alphalisa in supernatant of SKNBE2 cells carrying APP 695-wild type (Table 7c); format: cell-based; conditions: Method 2, Alphalisa, overnight incubation
Description: as §6, §7, §8, §9

[7] = Homo sapiens, SKNBE2, Table 7b, averaged IC50, non-linear regression of percentage of control vs log concentration, 4-parameter equation
[8] = Homo sapiens, Table 7a, SKNBE2 cells, compounds 18 h, XLfit 4-parameter fit of percent inhibition, top/bottom fixed to 100/0, hill slope 1
[9] = Table 7a, SKNBE2 cells, compounds 18 h, XLfit 4-parameter fit of percent inhibition, top/bottom fixed to 100/0, hill slope 1
[10] = Table 7b, averaged IC50, non-linear regression of percentage of control vs log concentration, 4-parameter equation

SMILES	Aβtotal (% Ctrl)_Mean (Aβtotal [3]) [% Ctrl]	Aβ42 (% Ctrl)_Mean (Aβ42 [4]) [% Ctrl]	IC50 (Aβ42 [1]; [10]) [nM]	IC50 (Aβtotal [2]; [10]) [nM]	also measured
COc1cc(Nc2cccn3cc(-c4ccc(F)cc4)nc23)ccc1-c1ocnc1C [Compound 1]					IC50 (Aβ42 [1]; [7]): 200 nM; IC50 (Aβ42 [1]; [8]): 203 nM; melting point: 163.2 °C; IC50 (Aβtotal [2]; [7]): > 5000 nM; IC50 (Aβtotal [2]; [8]): > 5000 nM
COc1cccc(-c2nc3c(Nc4ccc(-c5ocnc5C)c(OC)c4)cccn3c2C)c1 [Compound 2]	104	95			IC50 (Aβ42 [1]; [7]): 20 nM; IC50 (Aβ42 [1]; [8]): 22 nM; IC50 (Aβtotal [2]; [7]): > 3000 nM; IC50 (Aβtotal [2]; [8]): > 3000 nM
COc1cc(Nc2cccn3cc(-c4ccc(F)cc4)nc23)ccc1-c1cnc(C)o1 [Compound 3]					IC50 (Aβ42 [1]; [7]): 178 nM; IC50 (Aβ42 [1]; [8]): 196 nM; melting point: 219.1 °C; IC50 (Aβtotal [2]; [7]): > 10000 nM; IC50 (Aβtotal [2]; [8]): > 10000 nM
COc1cc(Nc2cccc3c2nc(-c2ccc(F)cc2)n3C(C)C)ccc1-c1cnc(C)o1.Cl.Cl [Compound 25]	96	76	23	> 3000	IC50 (Aβ42 [1]; [9]): 24 nM; IC50 (Aβtotal [2]; [9]): > 3000 nM
COc1cc(Nc2cc(C(F)(F)F)cc3c2nc(-c2ccc(F)cc2)n3C)ccc1-c1cnc(C)o1 [Compound 30]	92	96	35	> 10000	
COc1cc(Nc2nccc3c2nc(-c2ccc(F)cc2F)n3C)ccc1-c1cnc(C)o1 [Compound 31]	102	91	78	> 3000	IC50 (Aβ42 [1]; [9]): 76 nM; IC50 (Aβtotal [2]; [9]): > 3000 nM
COc1ccc(C)c(-c2cn3cccc(Nc4ccc(-c5cnc(C)o5)cc4)c3n2)c1 [Compound 40]	102	77	12	> 3000	IC50 (Aβ42 [1]; [9]): 11 nM; IC50 (Aβtotal [2]; [9]): > 3000 nM
COc1ccc(C)c(-c2cn3cccc(Nc4ccc(-c5cnc(C)o5)c(F)c4)c3n2)c1 [Compound 41]	87	93	126	> 3000	
COc1cc(Nc2nccc3c2nc(-c2ccc(F)cc2F)n3C)ccc1-c1ocnc1C [Compound 54]	104	101	490	> 10000	
Cc1cc2c(nc(-c3ccc(F)cc3)n2C)c(Nc2ccc(-c3cnc(C)o3)cc2)n1 [Compound 58]	105	89	240	> 10000	
COc1cc(Nc2nc(C)cc3c2nc(-c2ccc(F)cc2)n3C)ccc1-c1cnc(C)o1 [Compound 59]	95	97	72	> 3000	
COc1cccc(-c2nc3c(Nc4ccc(-c5cnc(C)o5)c(OC)c4)cccc3n2C)c1 [Compound 63]	90	56	11	> 3000	
COc1cc(Nc2ccc(-c3cnc(C)o3)c(OC)c2)c2nc(-c3ccc(F)cc3)n(C)c2c1 [Compound 95]	88	47	23	> 3000	
COc1cccc(-c2nc3c(Nc4ccc(-c5cnc(C)o5)c(OC)c4)nc(C)cc3n2C)c1 [Compound 97]	102	71	21	> 3000	
Cc1ncc(-c2ccc(Nc3cc(C(F)(F)F)cc4c3nc(-c3ccc(F)cc3)n4C)cn2)o1 [Compound 101]	92	77			IC50 (Aβtotal [5]): > 10000 nM; IC50 (Aβ42 [6]): 46 nM
COc1cc(Nc2cc(F)cc3c2nc(N2CCCC2)n3C)ccc1-c1cnc(C)o1 [Compound 104]	97	110			IC50 (Aβtotal [5]): > 10000 nM; IC50 (Aβ42 [6]): 501 nM
COc1cc(Nc2cc(C(F)(F)F)cn3cc(C)nc23)ccc1-c1ocnc1C.Cl.Cl [Compound 141]	89	87	251	> 10000	
COc1cc(Nc2cc(F)cn3cc(CC(C)C)nc23)ccc1-c1ocnc1C.Cl [Compound 157]	100	77	81	> 10000	
COc1cc(Nc2cc(C(F)(F)F)cn3cc(C(C)=O)nc23)ccc1-c1ocnc1C [Compound 165]					IC50 (Aβ42 [1]; [7]): 288 nM; melting point: 183.6 °C; IC50 (Aβtotal [2]; [7]): > 30000 nM
Cc1ncc(-c2ccc(Nc3cccn4c(C(C)C)c(-c5ccc(F)cc5)nc34)cc2)o1 [Compound 175]					IC50 (Aβ42 [1]; [7]): 33 nM; melting point: 157.2 °C; IC50 (Aβtotal [2]; [7]): > 3000 nM
Cc1cn2cc(Br)nc(Nc3ccc(-c4cnc(C)o4)cc3)c2n1 [Compound 179]					IC50 (Aβ42 [1]; [7]): > 3000 nM; melting point: 200.1 °C; IC50 (Aβtotal [2]; [7]): > 3000 nM
Cc1ncc(-c2ccc(Nc3cc(C(F)(F)F)cn4cc(C(=O)N(C)C)nc34)cc2F)o1 [Compound 181]	105	104	> 3000	> 3000	
